Where two headings read alike, the source gives them in different places.

Assay type in all cases: biochemical
The target of one test is MAPKAP-K2 (Homo sapiens, UniProt P49137). Kind of test: MAPKAP-K2 33P kinase assay. As to conditions: read-out: MAPKAP-K2 activity as percentage of control without inhibitor. The protocol: (§1) All assays (25.5 μl) were carried out at room temperature (21° C.) and were linear with respect to time and enzyme concentrations under the conditions used. Assays were performed for 30 minutes except assays for LCK and PKB which were performed for 15 minutes using Multidrop Micro reagent dispensers (Thermo Electron Corporation, Waltham, Mass. 02454, USA) in a 96-well format. The concentration of […] [γ-^33P] ATP (800 cpm/pmol) in the assays was one of three concentrations (5, 20 or 50 μM) in order to be at or below Km for ATP for the enzyme. Assays were initiated with MgATP and stopped by addition of 5 μl of 0.5M orthophosphoric acid. Assays were then harvested onto P81 filterplates using a unifilter harvester (PerkinElmer, Boston, Mass. 02118, USA), with a wash buffer of 50 mM orthophosphoric acid. Filterplates were then air dried overnight. 10 μl of Microscint O was added per well prior to counting for radioactivity.
Sequence of MAPKAP-K2 (P49137 whole entry, species assumed): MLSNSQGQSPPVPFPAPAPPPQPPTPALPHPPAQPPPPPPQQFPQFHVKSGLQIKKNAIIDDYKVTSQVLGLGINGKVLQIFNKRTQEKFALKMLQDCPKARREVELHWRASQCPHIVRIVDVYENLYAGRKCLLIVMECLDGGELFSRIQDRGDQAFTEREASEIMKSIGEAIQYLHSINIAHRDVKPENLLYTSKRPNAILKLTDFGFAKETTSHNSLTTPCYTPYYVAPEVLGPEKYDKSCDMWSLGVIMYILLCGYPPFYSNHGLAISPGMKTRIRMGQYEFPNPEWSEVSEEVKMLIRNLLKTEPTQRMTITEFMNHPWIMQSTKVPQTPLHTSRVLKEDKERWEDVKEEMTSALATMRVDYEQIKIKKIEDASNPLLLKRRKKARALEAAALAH
(§2) MKK1, JNK/SAPK1c, SAPK2a/p38, SAPK2b/p38β2, SAPK3/p38γ, SAPK4/p38δ, MAPK2/ERK2, MAPKAP-K1β, MAPKAP-K2, MSK1, PRAK, PKA, PKCα, PDK1, SGK, p70S6K, GSK3β, ROCK-II, PRK2, AMPK, CHK1, CHK2, CK2, PHK, LCK, were assayed according to Davies et al., (Davies, S. P., Reddy, H., Caivano, M. and Cohen, P. Biochem. J. 351, 95-105, 2000.
(§3) CSK and CDK2/cyclinA, were assayed according to Bain et al. (Bain J, McLauchlan H, Elliott M, Cohen P. Biochem J. 371, 199-204, 2003., except that ATP concentrations were either 5, 20 or 50 micromolar so that they were at or below the Km for ATP. The ATP concentrations used were as follows, 5 μM for assays of MKK1, SAPK3, SAPK4, GSK3β, PRK2 CK2 20 μm for assays of JNK, SAPK2β, MAPKAP-K2, MSK1, PRAK, PKA, […], PDK1, SGK, p70S6K, ROCK-II, CHK1, CHK2, CSK, CDK2, and 50 μM for assays of SAPK2a, MAPK2/ERK2, AMPK, LCK, PHK and MAPKAP-K1β.

The target in another test is PKCa (Homo sapiens, UniProt P17252). Kind of test: PKCa 33P kinase assay. As to conditions: read-out: PKCa activity as percentage of control without inhibitor; for remaining activity at 1 µM: inhibitor 1 μM; for remaining activity at 10 µM: inhibitor 10 μM. The protocol: as §1, §2, §3
The next test addresses T1, NEK2a (Homo sapiens, UniProt P51955).
T1 sequence (P51955 1-445): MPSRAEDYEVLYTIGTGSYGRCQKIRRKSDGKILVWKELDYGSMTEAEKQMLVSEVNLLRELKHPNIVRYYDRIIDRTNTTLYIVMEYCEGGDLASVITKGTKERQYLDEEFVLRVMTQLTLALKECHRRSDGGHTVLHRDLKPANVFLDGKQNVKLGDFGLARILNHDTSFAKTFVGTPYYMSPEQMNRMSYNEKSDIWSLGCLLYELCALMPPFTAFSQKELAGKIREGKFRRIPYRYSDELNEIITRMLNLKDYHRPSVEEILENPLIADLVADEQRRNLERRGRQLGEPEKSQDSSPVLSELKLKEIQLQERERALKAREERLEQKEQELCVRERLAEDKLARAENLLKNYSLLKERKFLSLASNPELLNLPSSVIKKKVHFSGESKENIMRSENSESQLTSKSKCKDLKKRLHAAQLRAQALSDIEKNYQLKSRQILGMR
Kind of test: NEK2a 33P kinase assay. Particulars: read-out: NEK2a activity as percentage of control without inhibitor. How it is done: as §1
5-20 mU of NEK2a (diluted in 50 mM Tris (pH 7.5), 0.1 mM EGTA, 1 mg/ml BSA, 0.1%, β-Mercaptoethanol) is assayed against NEK2a peptide ([…]) in a final volume of 25.5 μl containing 50 mM Tris (pH 7.5), 0.1 mM EGTA, 0.01% Brij, 0.1%, β-Mercaptoethanol, 300 μM NEK2a peptide, 10 mM magnesium acetate and 0.05 mM [^33P- γATP](500-1000 cpm/pmole) and incubated for 30 mins at room temperature.

For another test, the target named is CHK2 (Homo sapiens, UniProt O96017). Kind of test: CHK2 33P kinase assay. As to conditions: read-out: CHK2 activity as percentage of control without inhibitor. How it is done: as §1, §2, §3
Sequence of CHK2 (O96017 whole entry, species assumed): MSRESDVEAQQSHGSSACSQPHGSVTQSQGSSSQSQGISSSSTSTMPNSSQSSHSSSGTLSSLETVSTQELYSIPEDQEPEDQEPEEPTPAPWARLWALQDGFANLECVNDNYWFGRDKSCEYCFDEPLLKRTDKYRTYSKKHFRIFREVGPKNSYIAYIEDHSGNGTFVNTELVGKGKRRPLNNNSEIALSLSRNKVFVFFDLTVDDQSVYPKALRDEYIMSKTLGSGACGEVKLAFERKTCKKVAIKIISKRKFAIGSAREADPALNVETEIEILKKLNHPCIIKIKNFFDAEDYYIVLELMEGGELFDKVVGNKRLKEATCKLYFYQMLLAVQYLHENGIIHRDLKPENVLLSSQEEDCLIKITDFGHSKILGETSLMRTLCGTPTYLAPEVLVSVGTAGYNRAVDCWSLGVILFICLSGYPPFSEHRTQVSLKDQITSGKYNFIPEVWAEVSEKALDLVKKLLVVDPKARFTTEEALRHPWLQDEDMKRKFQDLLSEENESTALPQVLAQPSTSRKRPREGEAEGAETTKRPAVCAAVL
The next test concerns the target MAPKAP-K1a (Homo sapiens, UniProt Q15418). Description: MAPKAP-K1a 33P kinase assay. As to conditions: read-out: MAPKAP-K1a activity as percentage of control without inhibitor. How it is done: as §1
MAPKAP-K1a (5-20 mU diluted in 20 mM MOPS pH 7.5, 1 mM EDTA, 0.01% Brij35, 5% glycerol, 0.1% β-mercaptoethanol, 1 mg/ml BSA) is assayed against […] in a final volume of 25.5 μl containing 50 mM Na-β-glycerophosphate pH 7.5, 0.5 mM EDTA, 30 μM substrate peptide, 10 mM magnesium acetate and 0.05 mM [33P- γATP] (50-1000 cpm/pmole) and incubated for 40 min at room temperature.

Sequence of MAPKAP-K1a (Q15418 whole entry, species assumed): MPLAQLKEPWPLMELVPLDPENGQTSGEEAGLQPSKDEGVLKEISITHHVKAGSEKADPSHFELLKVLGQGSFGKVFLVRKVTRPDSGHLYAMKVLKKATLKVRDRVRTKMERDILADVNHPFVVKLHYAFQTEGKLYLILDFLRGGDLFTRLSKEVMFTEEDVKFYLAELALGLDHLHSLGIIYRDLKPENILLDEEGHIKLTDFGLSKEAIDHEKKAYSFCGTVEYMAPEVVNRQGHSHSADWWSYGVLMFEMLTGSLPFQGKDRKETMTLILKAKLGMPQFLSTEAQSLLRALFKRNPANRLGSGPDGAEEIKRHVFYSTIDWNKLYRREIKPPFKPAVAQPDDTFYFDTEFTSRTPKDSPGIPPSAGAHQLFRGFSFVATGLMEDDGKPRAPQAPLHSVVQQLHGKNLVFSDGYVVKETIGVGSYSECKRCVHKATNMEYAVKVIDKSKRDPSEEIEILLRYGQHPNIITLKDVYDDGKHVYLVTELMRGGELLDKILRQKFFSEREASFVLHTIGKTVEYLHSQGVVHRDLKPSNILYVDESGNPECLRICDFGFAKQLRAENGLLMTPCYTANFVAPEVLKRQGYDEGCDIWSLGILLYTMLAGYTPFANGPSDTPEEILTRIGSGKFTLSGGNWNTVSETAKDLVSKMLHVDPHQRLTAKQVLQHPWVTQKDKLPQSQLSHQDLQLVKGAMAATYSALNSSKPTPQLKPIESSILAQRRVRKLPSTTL

Regarding `COc1ccc2c3c([nH]c2c1)C(C)=NCC3` [Harmaline], the remaining activity at 1 µM at MAPKAP-K2 (inhibitor 1 μM) is 104%; on PKCa, 88%; at NEK2a (inhibitor 1 μM), 69%; at CHK2 (inhibitor 1 μM) it was 89%; at MAPKAP-K1a (inhibitor 1 μM), 98%. Further, the remaining activity at 10 µM at MAPKAP-K2 (inhibitor 10 μM) came to 112%; at PKCa, 81%; on NEK2a (inhibitor 10 μM), 109%; at CHK2 (inhibitor 10 μM), 89%; at MAPKAP-K1a (inhibitor 10 μM) it was 90%.
`CC1=NCCc2c1[nH]c1cc(O)ccc21` [Harmalol]: the remaining activity at 1 µM on MAPKAP-K2 (inhibitor 1 μM) is 79%; on PKCa, 109%; on NEK2a (inhibitor 1 μM) it was 104%; on CHK2 (inhibitor 1 μM), 76%; at MAPKAP-K1a (inhibitor 1 μM), 101%. The remaining activity at 10 µM on MAPKAP-K2 (inhibitor 10 μM) was 69%; on PKCa, 78%; at NEK2a (inhibitor 10 μM) it was 83%; on CHK2 (inhibitor 10 μM), 57%; at MAPKAP-K1a (inhibitor 10 μM), 85%.
For the compound `COc1ccc2c(c1)[nH]c1c(C)nccc12` [Harmine], the remaining activity at 1 µM at MAPKAP-K2 is 78%; on PKCa, 96%; at NEK2a it was 106%; at CHK2, 78%; at MAPKAP-K1a, 105%. In addition, the remaining activity at 10 µM on MAPKAP-K2 worked out at 82%; on PKCa, 101%; at NEK2a, 111%; on CHK2, 79%; on MAPKAP-K1a, 92%.

Values taken from patent US20100063085A1, “METHOD OF TREATING LEARNING IMPAIRMENT IN DOWN'S SYNDROME SUBJECTS” (University Court of The University of Dundee, priority 2008, published 2010).
